From US7709471B2, “Compounds” (AstraZeneca AB, priority 2006, dated 2010)

System: human colon tumour cell line HT29
Assay: Cellular Assay (phosphohistone H3 Ser10 mitotic marker, HT29)
Assay type: cell-based
Settings: HT-29, 24 h, HT29 cells, read-out: IC50 (cellular assay, phosphohistone H3)
Method: Chromosome condensation in mitosis is accompanied by phosphorylation of histone H3 on serine 10.
After 24 hours, cells were fixed in 3.7% (v/v) formaldehyde then permeabilised and blocked for 10 minutes in 100 μl 0.5% (v/v) Triton X-100, 1% (w/v) bovine serum albumin (BSA) in phosphate buffered saline (PBS). […] The raw assay data were analysed by non-linear regression analysis and used to determine an IC50 value for each compound.

| SMILES | IC50 |
| --- | --- |
| CN1CCC(NC(=O)c2ccc(Nc3ncc4c(n3)N(C3CCCC3)CCC(=O)N4C)c3c2OCO3)CC1 [Example 341, 7-[(2-cyclopentyl-6-methyl-5-oxo-2,6,9,11-tetrazabicyclo[5.4.0]undeca-7,9,11-trien-10-yl)amino]-N-(1-methyl-4-piperidyl)benzo[1,3]dioxole-4-carboxamide] | < 0.3 µM |
| COc1cc(C(=O)NC2CCC(N3CCC3)CC2)ccc1Nc1ncc2c(n1)N(C1CCCC1)CCC(=O)N2C (centres unmarked) [Example 346, N-[4-(azetidin-1-yl)cyclohexyl]-4-[(2-cyclopentyl-6-methyl-5-oxo-2,6,9,11-tetrazabicyclo[5.4.0]undeca-7,9,11-trien-10-yl)amino]-3-methoxy-benzamide] | < 0.3 µM |
| COc1cc(C(=O)NC2CCNCC2)ccc1Nc1ncc2c(n1)N(C1CCCC1)CC(C)(C)C(=O)N2C [Example 349, 4-[(2-cyclopentyl-4,4,6-trimethyl-5-oxo-2,6,9,11-tetrazabicyclo[5.4.0]undeca-7,9,11-trien-10-yl)amino]-3-methoxy-N-(4-piperidyl)benzamide] | < 0.3 µM |
| CCN1CCC(NC(=O)c2ccc(Nc3ncc4c(n3)N(C3CCCC3)CC(C)(C)C(=O)N4C)c(OC)c2)CC1 [Example 350, 4-[(2-cyclopentyl-4,4,6-trimethyl-5-oxo-2,6,9,11-tetrazabicyclo[5.4.0]undeca-7,9,11-trien-10-yl)amino]-N-(1-ethyl-4-piperidyl)-3-methoxy-benzamide] | < 0.3 µM |
| COc1cc(C(=O)NCC(C)(C)CN(C)C)ccc1Nc1ncc2c(n1)N(C1CCCC1)CC(C)(C)C(=O)N2C [Example 351, 4-[(2-cyclopentyl-4,4,6-trimethyl-5-oxo-2,6,9,11-tetrazabicyclo[5.4.0]undeca-7,9,11-trien-10-yl)amino]-N-(3-dimethylamino-2,2-dimethyl-propyl)-3-methoxy-benzamide] | < 0.3 µM |
| CCN1CCC(NC(=O)c2cc(F)c(Nc3ncc4c(n3)N(C3CCCC3)CC(C)(C)C(=O)N4C)cc2F)CC1 [Example 355, 4-[(2-cyclopentyl-4,4,6-trimethyl-5-oxo-2,6,9,11-tetrazabicyclo[5.4.0]undeca-7,9,11-trien-10-yl)amino]-N-(1-ethyl-4-piperidyl)-2,5-difluoro-benzamide] | < 0.3 µM |
| CN1CCC(NC(=O)c2cc(F)c(Nc3ncc4c(n3)N(C3CCCC3)CC(C)(C)C(=O)N4C)cc2F)CC1 [Example 356, 4-[(2-cyclopentyl-4,4,6-trimethyl-5-oxo-2,6,9,11-tetrazabicyclo[5.4.0]undeca-7,9,11-trien-10-yl)amino]-2,5-difluoro-N-(1-methyl-4-piperidyl)benzamide] | < 0.3 µM |
| COc1cc(C(=O)NCCCN(C)C)ccc1Nc1ncc2c(n1)N(C1CCCC1)CC(C)(C)C(=O)N2C [Example 357, 4-[(2-cyclopentyl-4,4,6-trimethyl-5-oxo-2,6,9,11-tetrazabicyclo[5.4.0]undeca-7,9,11-trien-10-yl)amino]-N-(3-dimethylaminopropyl)-3-methoxy-benzamide] | < 0.3 µM |
| COc1cc(C(=O)NCCN2CCCC2)ccc1Nc1ncc2c(n1)N(C1CCCC1)CC(C)(C)C(=O)N2C [Example 358, 4-[(2-cyclopentyl-4,4,6-trimethyl-5-oxo-2,6,9,11-tetrazabicyclo[5.4.0]undeca-7,9,11-trien-10-yl)amino]-3-methoxy-N-(2-pyrrolidin-1-ylethyl)benzamide] | < 0.3 µM |
| COc1cc(C(=O)NCCN(C)C)ccc1Nc1ncc2c(n1)N(C1CCCC1)CC(C)(C)C(=O)N2C [Example 359, 4-[(2-cyclopentyl-4,4,6-trimethyl-5-oxo-2,6,9,11-tetrazabicyclo[5.4.0]undeca-7,9,11-trien-10-yl)amino]-N-(2-dimethylaminoethyl)-3-methoxy-benzamide] | < 0.3 µM |
| COc1cc(C(=O)NC2CCC(N3CCCC3)CC2)ccc1Nc1ncc2c(n1)N(C1CCCC1)CC(C)(C)C(=O)N2C (centres unmarked) [Example 360, 4-[(2-cyclopentyl-4,4,6-trimethyl-5-oxo-2,6,9,11-tetrazabicyclo[5.4.0]undeca-7,9,11-trien-10-yl)amino]-3-methoxy-N-(4-pyrrolidin-1-ylcyclohexyl)benzamide] | < 0.3 µM |
| COc1cc(C(=O)NC2CCN(C)CC2)c(F)cc1Nc1ncc2c(n1)N(C1CCCC1)CC(C)(C)C(=O)N2C [Example 361, 4-[(2-cyclopentyl-4,4,6-trimethyl-5-oxo-2,6,9,11-tetrazabicyclo[5.4.0]undeca-7,9,11-trien-10-yl)amino]-2-fluoro-5-methoxy-N-(1-methyl-4-piperidyl)benzamide] | < 0.3 µM |
| CN(C)CCCNC(=O)c1ccc(Nc2ncc3c(n2)N(C2CCCC2)CC(C)(C)C(=O)N3C)c(Cl)c1 [Example 362, 3-chloro-4-[(2-cyclopentyl-4,4,6-trimethyl-5-oxo-2,6,9,11-tetrazabicyclo[5.4.0]undeca-7,9,11-trien-10-yl)amino]-N-(3-dimethylaminopropyl)benzamide] | < 0.3 µM |
| COc1cc(C(=O)NC2CCC(N(C)C)CC2)ccc1Nc1ncc2c(n1)N(C1CCCC1)CC(C)(C)C(=O)N2C (centres unmarked) [Example 363, 4-[(2-cyclopentyl-4,4,6-trimethyl-5-oxo-2,6,9,11-tetrazabicyclo[5.4.0]undeca-7,9,11-trien-10-yl)amino]-N-(4-dimethylaminocyclohexyl)-3-methoxy-benzamide] | < 0.3 µM |
| COc1cc(C(=O)N[C@@H]2CCN(C)C2)c(F)cc1Nc1ncc2c(n1)N(C1CCCC1)CC(C)(C)C(=O)N2C [Example 364, 4-[(2-cyclopentyl-4,4,6-trimethyl-5-oxo-2,6,9,11-tetrazabicyclo[5.4.0]undeca-7,9,11-trien-10-yl)amino]-2-fluoro-5-methoxy-N-[(3R)-1-methylpyrrolidin-3-yl]benzamide] | < 0.3 µM |
| CN1C(=O)C(C)(C)CN(C2CCCC2)c2nc(Nc3cc(F)c(C(=O)NC4CCC(N(C)C)CC4)cc3Cl)ncc21 (centres unmarked) [Example 366, 5-chloro-4-[(2-cyclopentyl-4,4,6-trimethyl-5-oxo-2,6,9,11-tetrazabicyclo[5.4.0]undeca-7,9,11-trien-10-yl)amino]-N-(4-dimethylaminocyclohexyl)-2-fluoro-benzamide] | < 0.3 µM |
| CN1C(=O)C(C)(C)CN(C2CCCC2)c2nc(Nc3ccc(C(=O)NCC(C)(C)CN4CCCC4)cc3Cl)ncc21 [Example 367, 3-chloro-4-[(2-cyclopentyl-4,4,6-trimethyl-5-oxo-2,6,9,11-tetrazabicyclo[5.4.0]undeca-7,9,11-trien-10-yl)amino]-N-(2,2-dimethyl-3-pyrrolidin-1-yl-propyl)benzamide] | < 0.3 µM |
| COc1cc(C(=O)NCC(C)(C)CN2CCCC2)ccc1Nc1ncc2c(n1)N(C1CCCC1)CC(C)(C)C(=O)N2C [Example 368, 4-[(2-cyclopentyl-4,4,6-trimethyl-5-oxo-2,6,9,11-tetrazabicyclo[5.4.0]undeca-7,9,11-trien-10-yl)amino]-N-(2,2-dimethyl-3-pyrrolidin-1-yl-propyl)-3-methoxy-benzamide] | < 0.3 µM |
| CCN1CC[C@@H](NC(=O)c2ccc(Nc3ncc4c(n3)N(C3CCCC3)CC(C)(C)C(=O)N4C)c(OC)c2)C1 [Example 369, 4-[(2-cyclopentyl-4,4,6-trimethyl-5-oxo-2,6,9,11-tetrazabicyclo[5.4.0]undeca-7,9,11-trien-10-yl)amino]-N-[(3R)-1-ethylpyrrolidin-3-yl]-3-methoxy-benzamide] | < 0.3 µM |
| COc1cc(C(=O)NC2CCC(N(C)C)CC2)c(F)cc1Nc1ncc2c(n1)N(C1CCCC1)CC(C)(C)C(=O)N2C (centres unmarked) [Example 372, 4-[(2-cyclopentyl-4,4,6-trimethyl-5-oxo-2,6,9,11-tetrazabicyclo[5.4.0]undeca-7,9,11-trien-10-yl)amino]-N-(4-dimethylaminocyclohexyl)-2-fluoro-5-methoxy-benzamide] | < 0.3 µM |
| COc1cc(C(=O)NC2CCC(N3CCC3)CC2)ccc1Nc1ncc2c(n1)N(C1CCCC1)CC(C)(C)C(=O)N2C (centres unmarked) [Example 374, N-[4-(azetidin-1-yl)cyclohexyl]-4-[(2-cyclopentyl-4,4,6-trimethyl-5-oxo-2,6,9,11-tetrazabicyclo[5.4.0]undeca-7,9,11-trien-10-yl)amino]-3-methoxy-benzamide] | < 0.3 µM |
| CCC1(CC)CN(C2CCCC2)c2nc(Nc3ccc(C(=O)NCC(C)(C)CN4CCCC4)cc3OC)ncc2N(C)C1=O [Example 376, 4-[(2-cyclopentyl-4,4-diethyl-6-methyl-5-oxo-2,6,9,11-tetrazabicyclo[5.4.0]undeca-7,9,11-trien-10-yl)amino]-N-(2,2-dimethyl-3-pyrrolidin-1-yl-propyl)-3-methoxy-benzamide] | < 0.3 µM |
| CCN1CCC(NC(=O)c2cc(OC)c(Nc3ncc4c(n3)N(C3CCCC3)CC(CC)(CC)C(=O)N4C)cc2F)CC1 [Example 379, 4-[(2-cyclopentyl-4,4-diethyl-6-methyl-5-oxo-2,6,9,11-tetrazabicyclo[5.4.0]undeca-7,9,11-trien-10-yl)amino]-N-(1-ethyl-4-piperidyl)-2-fluoro-5-methoxy-benzamide] | < 0.3 µM |
| CCC1(CC)CN(C2CCCC2)c2nc(Nc3ccc(C(=O)NC4CCN(C)CC4)cc3OC)ncc2N(C)C1=O [Example 380, 4-[(2-cyclopentyl-4,4-diethyl-6-methyl-5-oxo-2,6,9,11-tetrazabicyclo[5.4.0]undeca-7,9,11-trien-10-yl)amino]-3-methoxy-N-(1-methyl-4-piperidyl)benzamide] | < 0.3 µM |
| COc1cc(C(=O)NCCN2CCCC2)ccc1Nc1ncc2c(n1)N(C1CCCC1)CC1(CC1)C(=O)N2C [Example 384, 4-(9′-cyclopentyl-5′-methyl-6′-oxo-5′,6′,8′,9′-tetrahydrospiro[cyclopropane-1,7′-pyrimido[5,4-b][1,4]diazepine]-2′-ylamino)-3-methoxy-N-(2-pyrrolidin-1-ylethyl)benzamide] | < 0.3 µM |
| CN1C(=O)C2(CC2)CN(C2CCCC2)c2nc(Nc3ccc(C(=O)NC4C[C@H]5CCC[C@@H](C4)N5C)cc3F)ncc21 (stereo partly drawn) [Example 388, 4-(9′-cyclopentyl-5′-methyl-6′-oxo-5′,6′,8′,9′-tetrahydrospiro[cyclopropane-1,7′-pyrimido[5,4-b][1,4]diazepine]-2′-ylamino)-3-fluoro-N-[(1S,5R)-9-methyl-9-azabicyclo[3.3.1]non-7-yl]benzamide] | < 0.3 µM |
